Experimental data taken from patent publication US20240269139A1, “COMPOUNDS FOR TARGETED PROTEIN DEGRADATION OF KINASES” (DANA-FARBER CANCER INSTITUTE, INC., priority 2020, published 2024).
Where two headings read alike, the source gives them in different places.

Legend:
Format in all cases: cell-based
[1] = tested on: protein kinases (human kinome); conditions: for logFC ABL1: ABL1 (P00519-2); for logFC of SRC: Accession P12931-2; for logFC LCK: accession P06239-3
[2] = biological target: protein kinases (human kinome) (Homo sapiens, UniProt P51451); conditions: for logFC BLK: BLK (P51451), direction down; for logFC of BLK (P51451): down
[3] = biological target: protein kinases (human kinome) (Homo sapiens, UniProt P16591); conditions: for logFC of FER (P16591-1): down; for logFC of FER: FER P16591-1
[4] = biological target: protein kinases (human kinome) (Homo sapiens, UniProt P53671); conditions: for logFC LIMK2: LIMK2 (P53671), down; for logFC of LIMK2: LIMK2 P53671
[5] = experiment wp056, direction of change down
[6] = experiment wp103, direction of change down
[7] = experiment wp107, direction of change down

Sequence of protein kinases (human kinome) (Homo sapiens, UniProt P53671) (P53671 whole entry): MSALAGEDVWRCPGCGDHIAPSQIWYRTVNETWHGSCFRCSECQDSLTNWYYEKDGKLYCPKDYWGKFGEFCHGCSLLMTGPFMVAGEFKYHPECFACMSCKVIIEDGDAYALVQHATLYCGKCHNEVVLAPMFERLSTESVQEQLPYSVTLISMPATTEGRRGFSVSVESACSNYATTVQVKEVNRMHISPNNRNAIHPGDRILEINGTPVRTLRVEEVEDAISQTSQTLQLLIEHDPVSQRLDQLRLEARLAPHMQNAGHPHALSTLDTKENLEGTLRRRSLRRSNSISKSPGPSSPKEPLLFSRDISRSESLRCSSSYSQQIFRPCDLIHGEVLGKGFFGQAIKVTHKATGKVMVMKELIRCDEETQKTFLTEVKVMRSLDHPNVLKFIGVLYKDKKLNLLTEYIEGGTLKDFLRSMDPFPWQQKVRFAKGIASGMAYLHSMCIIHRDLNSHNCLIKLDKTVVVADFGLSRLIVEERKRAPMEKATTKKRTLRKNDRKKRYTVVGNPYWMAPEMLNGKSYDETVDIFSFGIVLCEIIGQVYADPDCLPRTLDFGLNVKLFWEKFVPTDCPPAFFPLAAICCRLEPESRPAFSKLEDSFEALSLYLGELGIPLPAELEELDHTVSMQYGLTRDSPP
Sequence of protein kinases (human kinome) (Homo sapiens, UniProt P51451) (P51451 whole entry): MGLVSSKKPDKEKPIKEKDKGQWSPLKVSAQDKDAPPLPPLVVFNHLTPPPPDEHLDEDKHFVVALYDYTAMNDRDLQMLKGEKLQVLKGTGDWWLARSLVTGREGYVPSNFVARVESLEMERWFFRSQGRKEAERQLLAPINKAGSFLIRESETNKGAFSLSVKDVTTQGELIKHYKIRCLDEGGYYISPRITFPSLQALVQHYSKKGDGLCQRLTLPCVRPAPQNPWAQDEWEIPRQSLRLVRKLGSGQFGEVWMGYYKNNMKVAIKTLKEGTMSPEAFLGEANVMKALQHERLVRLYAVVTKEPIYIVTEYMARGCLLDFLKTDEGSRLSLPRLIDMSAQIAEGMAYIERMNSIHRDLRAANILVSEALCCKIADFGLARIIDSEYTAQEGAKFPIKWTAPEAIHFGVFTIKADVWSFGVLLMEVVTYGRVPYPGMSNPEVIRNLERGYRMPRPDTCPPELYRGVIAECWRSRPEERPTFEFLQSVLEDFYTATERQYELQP
Sequence of protein kinases (human kinome) (Homo sapiens, UniProt P16591) (P16591 whole entry): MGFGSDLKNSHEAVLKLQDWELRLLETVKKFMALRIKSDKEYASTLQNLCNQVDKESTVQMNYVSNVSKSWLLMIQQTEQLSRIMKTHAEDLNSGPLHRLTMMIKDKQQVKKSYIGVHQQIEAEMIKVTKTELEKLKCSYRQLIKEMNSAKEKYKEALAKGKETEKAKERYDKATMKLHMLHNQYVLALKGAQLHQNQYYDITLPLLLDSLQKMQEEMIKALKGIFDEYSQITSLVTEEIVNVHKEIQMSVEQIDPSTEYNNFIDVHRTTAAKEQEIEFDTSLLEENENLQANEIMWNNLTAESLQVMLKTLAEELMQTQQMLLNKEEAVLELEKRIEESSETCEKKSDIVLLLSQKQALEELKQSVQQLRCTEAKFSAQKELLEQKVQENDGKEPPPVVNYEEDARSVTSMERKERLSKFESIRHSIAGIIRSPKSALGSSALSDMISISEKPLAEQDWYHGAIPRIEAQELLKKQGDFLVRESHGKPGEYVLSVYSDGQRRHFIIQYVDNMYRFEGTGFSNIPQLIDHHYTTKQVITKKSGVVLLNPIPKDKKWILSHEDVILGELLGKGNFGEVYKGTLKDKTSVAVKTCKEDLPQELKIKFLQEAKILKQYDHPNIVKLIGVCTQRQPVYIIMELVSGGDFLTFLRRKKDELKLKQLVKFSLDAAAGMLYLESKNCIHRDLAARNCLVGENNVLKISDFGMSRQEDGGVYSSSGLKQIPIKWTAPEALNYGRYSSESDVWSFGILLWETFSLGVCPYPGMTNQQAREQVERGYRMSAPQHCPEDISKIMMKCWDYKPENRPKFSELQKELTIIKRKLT

In the case of `Cc1ccc(C(=O)Nc2ccc(CN3CCN(CCCOCCOCCOCCNC(=O)COc4cccc5c4C(=O)N(C4CCC(=O)NC4=O)C5=O)CC3)c(C(F)(F)F)c2)cc1C#Cc1cnc2cccnn12` (stereo not drawn) [SB1.G.187], the “logFC ABL1” value ([1]; experiment wp056) is reported as −0.5173, the “logFC ABL1” value ([1]; experiment wp103) is reported as −0.754 and the “logFC ABL1” value ([1]; experiment wp107) is reported as −0.5339. The “logFC FYN” value ([1]; Accession P06241-2, experiment wp107) was −0.5334, the “logFC of SRC” value ([1]; experiment wp056) was −0.604 and the “logFC of SRC” value ([1]; experiment wp103) was −0.8282. For the same compound, the “logFC of SRC” value ([1]; experiment wp105) was −0.5683, the “logFC of SRC” value ([1]; experiment wp107) was −1.206 and the “logFC MAP3K20 (Q9NYL2-2)” value ([1]; Experiment wp103) was −0.6203. The “logFC MAP3K20 (Q9NYL2-2)” value ([1]; Experiment wp107) was −0.4387, the “logFC MAP3K20 (Q9NYL2-2)” value ([1]; Experiment wp114) was −0.7846 and the “logFC of LYN (P07948-2)” value ([1]; Experiment wp114) was −0.4408. The logFC ([1]; FER (P16591-3), experiment wp172, direction down) was −1.394, the “logFC of FER” value ([1]; FER P16591-3, experiment wp172) was −1.394 and the “logFC FYN” value ([1]; FYN P06241-2, experiment wp107) was −0.5334. For the same compound, the logFC ([1]; GK P32189-3, experiment wp056) was −0.4719, the “logFC LCK” value [1, 5] was −1.003 and the “logFC LCK” value [1, 6] was −1.237. For the same compound, the “logFC LCK” value [1, 7] was −1.237, the logFC ([1]; LYN (P07948-2), experiment wp105) was −1.087 and the logFC ([1]; LYN (P07948-2), experiment wp114) was −0.4408. For the same compound, the “logFC MAPK14” value ([1]; MAPK14, accession Q16539-2, experiment wp056, direction of change down) was −0.8019, the “logFC MAPK14” value ([1]; MAPK14, accession Q16539-2, experiment wp105, direction of change down) was −0.9084 and the “logFC MAPK14” value ([1]; MAPK14 Q16539-2, experiment wp056) was −0.8019. For the same compound, the “logFC MAPK14” value ([1]; MAPK14 Q16539-2, experiment wp105) was −0.9084, the “logFC PDK3” value ([1]; PDK3 (Q15120-2), experiment wp056) was −0.4827 and the “logFC ABL1 (P00519-2)” value ([1]; experiment wp056) was −0.5173. The “logFC PDK3 (Q15120-2)” value ([1]; experiment wp056) was −0.4827, the “logFC LCK (P06239-3)” value [1, 5] was −1.003 and the “logFC ABL1 (P00519-2)” value ([1]; experiment wp103) was −0.754. The “logFC MAP3K20 (Q9NYL2-2)” value ([1]; experiment wp103) was −0.6203, the “logFC LCK (P06239-3)” value [1, 6] was −1.237 and the “logFC of LYN (P07948-2)” value ([1]; experiment wp105) was −1.087. The “logFC ABL1 (P00519-2)” value ([1]; experiment wp107) was −0.5339, the “logFC MAP3K20 (Q9NYL2-2)” value ([1]; experiment wp107) was −0.4387 and the “logFC LCK (P06239-3)” value [1, 7] was −1.237. The “logFC MAP3K20 (Q9NYL2-2)” value ([1]; experiment wp114) was −0.7846, the “logFC BLK” value ([2]; experiment wp103) was −2.098 and the “logFC BLK” value ([2]; experiment wp107) was −1.916. The “logFC of BLK” value ([2]; BLK P51451, experiment wp056) was −2.021, the “logFC of BLK (P51451)” value ([2]; Experiment wp056) was −2.021 and the “logFC of BLK (P51451)” value ([2]; Experiment wp103) was −2.098. The “logFC of BLK (P51451)” value ([2]; Experiment wp107) was −1.916, the “logFC of FER (P16591-1)” value ([3]; Experiment wp056) was −1.267 and the “logFC of FER (P16591-1)” value ([3]; Experiment wp103) was −1.672. The “logFC of FER (P16591-1)” value ([3]; Experiment wp105) was −1.432, the “logFC of FER (P16591-1)” value ([3]; Experiment wp107) was −1.76 and the “logFC of FER” value ([3]; experiment wp056) was −1.267. For the same compound, the “logFC of FER” value ([3]; experiment wp103) was −1.672, the “logFC of FER” value ([3]; experiment wp105) was −1.432 and the “logFC of FER” value ([3]; experiment wp107) was −1.76.

`Cc1ccc(C(=O)Nc2ccc(CN3CCN(CCOCCOCCNC(=O)CNc4cccc5c4C(=O)N(C4CCC(=O)NC4=O)C5=O)CC3)c(C(F)(F)F)c2)cc1C#Cc1cnc2cccnn12` (stereo not drawn) [TL13.150] was tested, and the “logFC of SRC” value ([1]; experiment wp081) was −0.5331, the “logFC MAPK14” value ([1]; MAPK14, accession Q16539-2, experiment wp081, direction of change down) was −0.5025 and the “logFC MAPK14” value ([1]; MAPK14 Q16539-2, experiment wp081) was −0.5025. For the same compound, the logFC ([1]; SRC (P12931-2) protein abundance, degrader vs DMSO, down) was −0.5331, the “logFC BLK” value ([2]; experiment wp081) was −1.435 and the “logFC of BLK (P51451)” value ([2]; Experiment wp081) was −1.435. For the same compound, the “logFC of FER (P16591-1)” value ([3]; Experiment wp081) was −1.511 and the “logFC of FER” value ([3]; experiment wp081) was −1.511.

With `Nc1ncc(-c2ccc(S(=O)(=O)N(CCCNC(=O)CCOCCOCCOCCOCCOCCNc3cccc4c3C(=O)N(C3CCC(=O)NC3=O)C4=O)C3CC3)cc2)cc1-c1ccc2c(c1)CCNC2=O` (stereo not drawn) [WH.10417.099] the “logFC CSNK1D” value ([1]; Accession P48730-2, experiment wp056, direction down) was −1.455, the “logFC CSNK1D” value ([1]; Accession P48730-2, experiment wp103, direction down) was −1.301 and the “logFC CSNK1D” value ([1]; Accession P48730-2, experiment wp107, direction down) was −1.248. For the same compound, the “logFC CSNK1D” value ([1]; Accession P48730-2, experiment wp172, direction down) was −0.6401, the “logFC GSK3B” value ([1]; Accession P49841-2, experiment wp056, direction down) was −1.294 and the “logFC GSK3B” value ([1]; Accession P49841-2, experiment wp103, direction down) was −1.442. The “logFC GSK3B” value ([1]; Accession P49841-2, experiment wp105, direction down) was −0.8403, the “logFC GSK3B” value ([1]; Accession P49841-2, experiment wp107, direction down) was −1.446 and the logFC ([1]; CSNK1A1 (P48729-2), experiment wp107) was −2.428. The “logFC CSNK1D” value ([1]; CSNK1D P48730-2, experiment wp056) was −1.455, the “logFC CSNK1D” value ([1]; CSNK1D P48730-2, experiment wp103) was −1.301 and the “logFC CSNK1D” value ([1]; CSNK1D P48730-2, experiment wp107) was −1.248. The “logFC CSNK1D” value ([1]; CSNK1D P48730-2, experiment wp172) was −0.6401, the “logFC of CSNK1A1 (P48729-2)” value ([1]; Experiment wp107) was −2.428 and the “logFC GSK3B” value ([1]; GSK3B P49841-2, experiment wp056) was −1.294. For the same compound, the “logFC GSK3B” value ([1]; GSK3B P49841-2, experiment wp103) was −1.442, the “logFC GSK3B” value ([1]; GSK3B P49841-2, experiment wp105) was −0.8403 and the “logFC GSK3B” value ([1]; GSK3B P49841-2, experiment wp107) was −1.446. The “logFC LIMK2” value ([4]; experiment wp103) was −0.5747, the “logFC LIMK2” value ([4]; experiment wp107) was −0.3744 and the “logFC of LIMK2” value ([4]; experiment wp103) was −0.5747. For the same compound, the “logFC of LIMK2” value ([4]; experiment wp107) was −0.3744.
